This is an account of results in patent publication US9266839B2, “Trifluoromethyl pyrazolyl guanidine F1F0-ATPase inhibitors and therapeutic uses thereof” (Lycera Corporation, priority 2013, dated 2016).

Series [1] in a line: Cytotoxicity in Ramos cells. The format is cell-based. To be noted: human, Ramos cells; mean of thirteen independent experiments; compound dissolved in dimethylsulfoxide; read-out: mean EC50 for cytotoxicity towards Ramos cells. The method, then: (§1) Compounds in Table 5 below were tested for activity against F1F0-ATPase by measuring the ability of the compounds to inhibit ATP synthesis. In addition, the compounds were assessed for cytotoxicity in Ramos cells. Inhibition of F1F0-ATPase activity in synthesizing ATP and cytotoxicity in Ramos cells were measured according to the procedures described in K. M. Johnson et al. Chemistry & Biology 2005, 12, 485-496.
(§2) The activity of compound 3-chloro-N-(((3-chloro-5-fluorophenyl)amino)((5-(trifluoromethyl)-1H-pyrazol-3-yl)amino)methylene)benzamide towards F1F0-ATPase and Ramos cells was evaluated by performing multiple times the assay procedures described in Part I. In particular, activity against F1F0-ATPase was evaluated by measuring the ability of the compound to inhibit ATP synthesis in twelve independent experiments. Cytotoxicity towards Ramos cells was measured in thirteen independent experiments. Consistent with the procedure in Part I, the compound was dissolved in dimethylsulfoxide to form a solution that was applied to F1F0-ATPase or Ramos cells, and the assays were performed according to procedures described in K. M. Johnson et al. Chemistry & Biology 2005, 12, 485-496.
(§3) Similarly, EC50 values (for cytotoxicity towards Ramos cells) from multiple replications of the experimental procedure were averaged. The mean EC50 value for 3-chloro-N-(((3-chloro-5-fluorophenyl)amino)((5-(trifluoromethyl)-1H-pyrazol-3-yl)amino)methylene)benzamide for cytotoxicity towards Ramos cells was determined to be 59±6 nM.

A further series relates to Ramos cells. Nature of the series: Cytotoxicity in Ramos cells. The format is cell-based. To be noted: Homo sapiens; cytotoxicity in Ramos cells; read-out: Ramos Cell EC50. The method, then:
as §1, §2, §3

The next series addresses Cytochrome P450 2D6 (Homo sapiens (Human), UniProt P10635). In words: Inhibition of Cytochrome P450 2D6 in human liver microsomes. It counts as in vitro ADME. To be noted: 30 minutes incubation with test compound, substrate dextromethorphan 10 μM, read-out: CYP2D6 IC50. As to the method:
Master solutions were prepared containing human liver microsomes (Gibco, 0.2 mg/mL) and MgCl2 (5 mM) in potassium phosphate buffer (10 mM). To aliquots (169 μL) of the microsome solution was added test compound in acetonitrile (1 μL) and DMSO (1 μL) to provide final test compound concentrations of 0, 0.005, 0.05, 0.25, 1, 5, 10, and 25 μM.
NADPH (10 mM) in ultra-pure water (20 μL) was added, and this mixture was incubated at 37° C. for 30 minutes. The enzyme reaction then was initiated by the addition of enzyme substrate (dextromethorphan) dissolved in 1 μL of acetonitrile and 9 μL of ultra-pure water. The final substrate concentration was 10 μM.
After 20 minutes, the incubation mixture was diluted with 3 volumes of cold methanol containing imipramine (200 nM), labetalol (200 nM), and ketoprofen (2 μM) as internal standards. Samples were centrifuged at 16,000 g for 10 minutes, then an aliquot of the supernatant (200 μL) was removed and analyzed by LC/MS/MS.
LC/MS/MS analyses were performed in duplicate using a Shimadzu HPLC and an API 4000 mass spectrometer. Liquid chromatography employed a Phenomenex C18, 5 μm, 50×2 mm column fitted with a guard column. Solvent A was acetonitrile containing 0.1% v/v formic acid. Solvent B was water containing 0.1% v/v formic acid. […]
The formation of metabolites was evaluated by peak area, and data were analyzed using Prism 5.0 software (GraphPad). […]
(In general: Liver microsomes are a subcellular fraction often used to study metabolism.)

Sequence of Cytochrome P450 2D6 (P10635 whole entry): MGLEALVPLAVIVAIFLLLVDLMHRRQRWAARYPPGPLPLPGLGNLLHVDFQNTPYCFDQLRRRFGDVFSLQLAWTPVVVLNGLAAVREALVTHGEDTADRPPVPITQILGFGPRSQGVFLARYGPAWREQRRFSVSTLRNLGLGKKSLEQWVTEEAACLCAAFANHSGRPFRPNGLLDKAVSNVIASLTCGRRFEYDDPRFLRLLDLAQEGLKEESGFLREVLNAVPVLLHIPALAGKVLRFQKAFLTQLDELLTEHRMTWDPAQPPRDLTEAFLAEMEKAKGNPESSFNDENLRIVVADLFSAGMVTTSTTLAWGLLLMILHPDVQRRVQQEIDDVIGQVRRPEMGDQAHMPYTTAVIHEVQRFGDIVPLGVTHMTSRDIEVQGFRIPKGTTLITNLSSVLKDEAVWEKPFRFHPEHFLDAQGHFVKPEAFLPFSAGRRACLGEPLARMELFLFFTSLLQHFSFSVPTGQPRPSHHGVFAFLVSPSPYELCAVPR

Consider `O=C(/N=C(/Nc1cc(F)cc(Cl)c1)Nc1cc(C(F)(F)F)[nH]n1)c1cccc(Cl)c1` [Compound 1, 3-chloro-N-(((3-chloro-5-fluorophenyl)amino)((5-(trifluoromethyl)-1H-pyrazol-3-yl)amino)methylene)benzamide], for which the 50% effective concentration (EC50) (commonly the midpoint of the concentration-response curve) in series [1] was 59 ± 6 nM; in the series on Ramos cells it was 50 nM. Moreover, the 50% inhibitory concentration (IC50) (commonly the concentration at which inhibition is half-maximal) on Cytochrome P450 2D6 is 3200 nM.

For `O=C(/N=C(/Nc1cccc(Cl)c1)Nc1cc(C(F)(F)F)[nH]n1)c1cccc(Cl)c1` [Compound 2, 3-chloro-N-(((3-chlorophenyl)amino)((5-(trifluoromethyl)-1H-pyrazol-3-yl)amino)methylene)benzamide, reference compound], the concentration for a half-maximal effect (EC50) in the series on Ramos cells stood at 100 nM. Besides, the IC50 on Cytochrome P450 2D6 was 1100 nM.

Regarding `O=C(/N=C(/Nc1cc(F)cc(Cl)c1)Nc1cc(C(F)F)[nH]n1)c1ccc(Cl)cc1` [Compound 3], in the series on Ramos cells, the concentration giving a half-maximal response (EC50) was determined as 1840 nM.

For the compound `O=C(/N=C(/Nc1cc(F)cc(Cl)c1)Nc1cc(C(F)(F)F)[nH]n1)c1ccc(Cl)cc1` [Compound 4], in the series with Ramos cells, the concentration giving a half-maximal response (EC50) came to 120 nM.
